Data reported in article PMC13470012, “Long-term inhibition of lysosomal glucocerebrosidase activity promotes GPX4 stability and inhibits ferroptosis in dopaminergic neurons” (Cell Death & Disease, 2026).

Target: T1, lysosomal glucocerebrosidase (Homo sapiens, UniProt P04062)
T1 construct: gene GBA1
T1 sequence (P04062 40-536): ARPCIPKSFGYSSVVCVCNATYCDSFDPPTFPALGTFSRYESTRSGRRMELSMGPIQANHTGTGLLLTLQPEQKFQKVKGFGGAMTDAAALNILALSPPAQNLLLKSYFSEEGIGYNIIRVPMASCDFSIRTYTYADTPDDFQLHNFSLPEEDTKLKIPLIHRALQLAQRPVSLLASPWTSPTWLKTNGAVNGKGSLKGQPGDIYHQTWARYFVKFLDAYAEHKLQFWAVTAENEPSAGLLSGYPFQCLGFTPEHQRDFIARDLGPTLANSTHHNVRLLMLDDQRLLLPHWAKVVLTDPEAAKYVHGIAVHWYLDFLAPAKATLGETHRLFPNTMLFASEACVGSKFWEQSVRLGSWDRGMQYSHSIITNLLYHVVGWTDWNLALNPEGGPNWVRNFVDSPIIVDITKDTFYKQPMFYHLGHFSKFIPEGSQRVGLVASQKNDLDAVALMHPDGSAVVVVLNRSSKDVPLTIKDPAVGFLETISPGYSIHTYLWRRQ
Assay: fluorogenic (4-methylumbelliferone) glucocerebrosidase activity assay in lysates of CBE-treated human LUHMES cells, […] h dose range
Format: cell-based

In the case of `O[C@H]1[C@H](O)[C@@H](O)[C@@H]2O[C@@H]2[C@@H]1O` [conduritol-beta-epoxide], the IC50 is reported as ~9 µM.
